Data reported in patent US11058668B2 (EIDOS THERAPEUTICS, INC., priority 2018, dated 2021).
Read-outs that look alike come from different tables or passages of the source.

Assays:
[1] = Phase 1 (AG10-001) multiple ascending dose pharmacokinetics; format: in vivo, human; settings: for Cmax / Tmax / AUC(0-t): human, plasma, oral, geometric mean; for AUC(0-t): read-out: AUC0-12
Method: Quantitation was performed using a weighted 1/x^2 linear least squares regression analysis generated from calibration standards prepared on the day of extraction. […]

[2] = Phase 2 study, tolerability in ATTR-CM patients; format: in vivo, human; settings: symptomatic ATTR-CM patients, 28 days
Method: (§1) Screening and randomization will be followed by a 28-day blinded, placebo-controlled treatment period. Approximately 45 subjects are planned to enroll in the Phase 2 study.
(§2) The phase 2 clinical study was performed essentially as described in Example 3. A total of 49 patents were included instead of 45: 16 receiving 400 mg bid; 16 receiving 800 mg bid; and 17 receiving placebo.

tetrameric TTR [3] = biological target: T1, tetrameric TTR (Homo sapiens, UniProt P02766); experiment: Western blot for stabilization of tetrameric TTR, Phase 1 subjects; format: in vivo; parameters: from tissue; host or cells: serum / blood plasma of dosed healthy human volunteers; settings: 800 mg AG10 HCl q12h, day 12 predose (trough) and post dose (peak); 72h acidification
Method: (§5) Blood plasma samples from the subject are diluted with acidification buffer (sodium acetate, KCl, EDTA, DTT, pH about 4.0) for both the 0 and 72 hour time point. Time 0 hr samples are directly cross-linked with glutaraldehyde, and then quenched. 72 hr samples are incubated at room temperature for 72 hr and then cross-linked and quenched by the same protocol. All samples are then denatured by adding SDS gel loading buffer and boiled prior to gel loading. Each sample is separated in SDS-PAGE gels and analyzed by immunoblotting using anti-TTR antiserum (Polyclonal Rabbit Anti-Human Prealbumin. DAKO Cat# A0002). The density of all TTR bands are quantified using infrared LICOR imaging system or Fluorescence Imaging system and reported. Normalization by IgG band using LICOR 925-32232 or Invitrogen 84546.

tetrameric TTR [4] = biological target: T2, tetrameric TTR (Homo sapiens, UniProt P02766, V50M); experiment: Phase 2 study, Western blot of tetrameric TTR ex vivo; format: in vivo; settings: individual with V30M TTR mutation, 800 mg b.i.d.
T2 construct: monitoring TTR serum concentrations in trial participants; from tissue; host or cells: serum / plasma of ATTR-CM patients
Method: as §5

TTR [5] = experiment: Phase 2 study in ATTR-CM patients, serum TTR concentration (ARUP Prealbumin assay); format: in vivo, human; settings: for Blood Serum TTR Concentration, Average Change: V122I; for Blood Serum TTR Concentration, Average Change (baseline to day 28): all genotypes, ATTR-CM patients
Method: as §1
(§3) An ARUP Prealbumin assay was also used to analyze TTR blood serum concentration in the MAD cohorts tested. ARUP analyzes samples for prealbumin using the prealbumin reagent kit provided by Roche Diagnostics and run on the Roche Diagnostics c702 module. Lowest reportable limit is 3 mg/dL.
as §2
(§4) TTR stabilization was measured ex vivo using the FPE and Western blot assays described at the beginning of the examples section. TTR stabilization was measured in vivo by monitoring TTR serum concentrations in trial participants.

TTR [6] = biological target: T3, TTR (Homo sapiens, UniProt P02766, V50M); experiment: as above; format: in vivo; settings: 800 mg b.i.d., V30M
T3 construct: monitoring TTR serum concentrations in trial participants; from tissue; host or cells: serum / plasma of ATTR-CM patients
Method: as §1, §3, §2, §4

tetrameric TTR [7] = biological target: T1, tetrameric TTR; experiment: Phase 2 study, fluorescence probe (FPE) assay ex vivo; format: in vivo; parameters: monitoring TTR serum concentrations in trial participants; from tissue; host or cells: serum / plasma of ATTR-CM patients
Method: Aliquots of each serum sample are plated in 96 well plates. The fluorescence changes (λex=328 nm and λem=384 nm) after addition of probe are monitored every 15 min using a fluorescent capable microplate for 6 hr at RT.
as §2, §4

[8] = biological target: human serum albumin (HSA) (Homo sapiens, UniProt P02768); experiment: Gel filtration and dialysis binding to human serum albumin; parameters: albumin from human serum; Sigma Aldrich, catalog no.: A3782; purchased Sigma Aldrich A3782; host or cells: human serum; settings: 30 μM compound, 600 μM albumin
Chain of human serum albumin (HSA) (P02768 25-609): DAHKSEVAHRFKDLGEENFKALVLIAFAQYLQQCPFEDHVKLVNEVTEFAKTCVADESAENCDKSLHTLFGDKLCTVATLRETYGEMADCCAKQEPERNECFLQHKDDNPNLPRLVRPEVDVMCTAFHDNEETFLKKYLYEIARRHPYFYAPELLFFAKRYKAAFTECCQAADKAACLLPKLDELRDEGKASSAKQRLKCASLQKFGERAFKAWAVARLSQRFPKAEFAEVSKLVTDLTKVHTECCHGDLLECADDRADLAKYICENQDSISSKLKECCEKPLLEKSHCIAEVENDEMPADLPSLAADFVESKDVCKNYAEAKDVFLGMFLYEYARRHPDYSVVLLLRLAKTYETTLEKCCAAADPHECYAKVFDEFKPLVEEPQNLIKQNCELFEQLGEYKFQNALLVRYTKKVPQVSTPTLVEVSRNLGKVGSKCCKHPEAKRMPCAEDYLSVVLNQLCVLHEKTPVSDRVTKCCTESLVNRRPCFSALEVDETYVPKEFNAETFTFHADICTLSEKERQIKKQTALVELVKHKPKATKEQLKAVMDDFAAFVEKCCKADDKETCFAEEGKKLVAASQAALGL
Method: The concentration of HSA (i.e. concentration at time zero) was also determined using NanoDrop™ (based on calibration curves of known HAS concentrations). […] The concentration of test compounds in these fractions (i.e. conc. at time zero) was evaluated using HPLC (based on calibration curves of known concentration of test compounds). 500 μL of each HSA/test compound samples was then added to a Slide-A-Lyzer Dialysis Cassette G2 (3.5K MWCO, Thermo Scientific, catalog no. P187722). The dialysis Cassettes were placed in 100 ml of assay buffer and stirred at room temperature. After 24 hr, the samples were removed from dialysis cassette and the volume was measured. The concentration of HAS and test compounds were determined using NanoDrop™ and HPLC as described above.

TTR in human serum = biological target: T4, TTR in human serum (Homo sapiens, UniProt P02766); experiment: FPE assay in human serum; format: binding; settings: whole human serum, FPE concentration-effect
T4 construct: pooled human serum (prepared from human male AB plasma, Sigma; catalog no; H4522; TTR concentration 5 μM); tissue Sigma H4522; host or cells: pooled human serum from human male AB plasma
Source text: FPE assay for binding TTR in buffer and human or dog serum. […] The FPE probe is a thioester TTR ligand that is not fluorescent by itself, however upon binding to the T4 binding site of TTR it covalently modifies lysine 15 (K15), creating a fluorescent conjugate. Ligands that bind to the T4 site of TTR will decrease FPE probe binding as observed by lower fluorescence. […] The change in fluorescence (λex=328 nm and λem=384 nm) were monitored using a microplate spectrophotometer reader (SpectraMax M5) for 6 hr at rt. […] The change in fluorescence (λex=328 nm and λem=384 nm) were monitored using a microplate spectrophotometer reader (SpectraMax M5) for 6 hr at rt.

tetrameric TTR [9] = biological target: T1, tetrameric TTR; experiment: Fluorescent Probe Exclusion (FPE) assay on serum of Phase 1 subjects; format: in vivo; parameters: from tissue; host or cells: serum / blood plasma of dosed healthy human volunteers; settings: single dose of 300 mg and 800 mg
[10] = ATTR-CM patients, FPE vs plasma concentration

With `Cc1n[nH]c(C)c1CCCOc1cc(C(=O)O)ccc1F` [AG10, 3-(3-(3,5-dimethyl-1H-pyrazol-4-yl)propoxy)-4-fluorobenzoic acid] the “accumulation over 12 days of dosing” value ([1]; 100, 300, 800 mg every 12 hr for 12 days) was “No significant accumulation”, the Cmax ([1]; 100 mg, 100 mg q12 h, Day 1) was 8.67 µM and the Tmax ([1]; 100 mg, 100 mg q12 h, Day 1) was 47.6 min. The AUC(0-t) ([1]; 100 mg, 100 mg q12 h, Day 1) was 46.3 µM·h, the Cmax ([1]; 100 mg, 100 mg q12 h, Day 12) was 12.1 µM and the Tmax ([1]; 100 mg, 100 mg q12 h, Day 12) was 33.7 min. For the same compound, the AUC(0-t) ([1]; 100 mg, 100 mg q12 h, Day 12) was 70.3 µM·h, the Cmax ([1]; 300 mg, 300 mg q12 h, Day 1) was 14.3 µM and the Tmax ([1]; 300 mg, 300 mg q12 h, Day 1) was 42.4 min. For the same compound, the AUC(0-t) ([1]; 300 mg, 300 mg q12 h, Day 1) was 65.2 µM·h, the Cmax ([1]; 300 mg, 300 mg q12 h, Day 12) was 23.5 µM and the Tmax ([1]; 300 mg, 300 mg q12 h, Day 12) was 33.7 min. For the same compound, the AUC(0-t) ([1]; 300 mg, 300 mg q12 h, Day 12) was 97.7 µM·h, the Cmax ([1]; 800 mg, 800 mg q12 h, Day 1) was 31.8 µM and the Tmax ([1]; 800 mg, 800 mg q12 h, Day 1) was 47.6 min. The AUC(0-t) ([1]; 800 mg, 800 mg q12 h, Day 1) was 120 µM·h, the Cmax ([1]; 800 mg, 800 mg q12 h, Day 12) was 42.5 µM and the Tmax ([1]; 800 mg, 800 mg q12 h, Day 12) was 53.5 min. The AUC(0-t) ([1]; 800 mg, 800 mg q12 h, Day 12) was 159 µM·h, the tolerability [2] was “well tolerated” and the “stabilization of tetrameric TTR (Western blot)” value (tetrameric TTR [3]) was “full stabilization of tetrameric TTR”. For the same compound, the “TTR stabilization at day 28 (western blot)” value (tetrameric TTR [4]) was “near complete TTR stabilization”, the “Blood Serum TTR Concentration, Average Change” value (TTR [5]; 400 mg b.i.d.) was 51% and the “Blood Serum TTR Concentration, Average Change (baseline to day 28)” value (TTR [5]; 400 mg b.i.d.) was 36%. The “Blood Serum TTR Concentration, Average Change” value (TTR [5]; 800 mg b.i.d.) was 90%, the “Blood Serum TTR Concentration, Average Change (baseline to day 28)” value (TTR [5]; 800 mg b.i.d.) was 50% and the “share of cohort with serum TTR concentrations within normal range (20-40 mg/dL)” value (TTR [5]; after 28 days of treatment, each active cohort (400 mg and 800 mg b.i.d.)) was 100%. The “Blood Serum TTR Concentration, Average Change” value (TTR [6]) was 61%, the “target engagement by day 14 (fluorescence probe assay)” value (tetrameric TTR [7]; 400 mg b.i.d. and 800 mg b.i.d., trough and peak time points) was “near full target engagement” and the “blood plasma concentration at which full target engagement occurs” value (tetrameric TTR [7]; [10]) was “about 7.5 μM”. For the same compound, the “blood plasma concentration at which significant target engagement occurs” value (tetrameric TTR [7]; [10]) was about 5 µM, the “concentration bound to HSA following dialysis vs buffer for 24 hr” value [8] was 7.8 ± 0.1 µM and the “concentration bound to albumin at time 0 (immediately after gel filtration)” value [8] was 18.3 ± 0.98 µM. The “concentration at which complete occupancy is achieved” value (TTR in human serum) was at least 10 µM and the “stabilization of TTR at peak concentrations (FPE assay)” value (tetrameric TTR [9]) was “complete stabilization”.
